According to US20020076736A1, “Methods of affecting laminin 5 processing” (priority 2000, published 2002):
“Also recorded” adds a separate entry of the source.

What was measured:
[1] = test system: SCC-25 cells; assay: Matrigel invasion chamber, SCC-25; format: cell-based, human; conditions: 5 μM; 24 hours
Protocol: (§1) The assay is a standard in vitro measure of tumor cell invasion. Tumor cells are plated atop a layer of fabricated basement membrane and allowed to migrate over the course of 24 hours towards conditioned 3T3 medium, which contains a chemo-attractant, located in a lower chamber. […] (FIG. 25.)

[2] = target: mTll-1 (Homo sapiens, UniProt O43897); assay: Cleavage of unprocessed laminin 5 matrix by mTll-1, western blot; format: biochemical; conditions: 10 μM
mTll-1, sequence (O43897 148-1013): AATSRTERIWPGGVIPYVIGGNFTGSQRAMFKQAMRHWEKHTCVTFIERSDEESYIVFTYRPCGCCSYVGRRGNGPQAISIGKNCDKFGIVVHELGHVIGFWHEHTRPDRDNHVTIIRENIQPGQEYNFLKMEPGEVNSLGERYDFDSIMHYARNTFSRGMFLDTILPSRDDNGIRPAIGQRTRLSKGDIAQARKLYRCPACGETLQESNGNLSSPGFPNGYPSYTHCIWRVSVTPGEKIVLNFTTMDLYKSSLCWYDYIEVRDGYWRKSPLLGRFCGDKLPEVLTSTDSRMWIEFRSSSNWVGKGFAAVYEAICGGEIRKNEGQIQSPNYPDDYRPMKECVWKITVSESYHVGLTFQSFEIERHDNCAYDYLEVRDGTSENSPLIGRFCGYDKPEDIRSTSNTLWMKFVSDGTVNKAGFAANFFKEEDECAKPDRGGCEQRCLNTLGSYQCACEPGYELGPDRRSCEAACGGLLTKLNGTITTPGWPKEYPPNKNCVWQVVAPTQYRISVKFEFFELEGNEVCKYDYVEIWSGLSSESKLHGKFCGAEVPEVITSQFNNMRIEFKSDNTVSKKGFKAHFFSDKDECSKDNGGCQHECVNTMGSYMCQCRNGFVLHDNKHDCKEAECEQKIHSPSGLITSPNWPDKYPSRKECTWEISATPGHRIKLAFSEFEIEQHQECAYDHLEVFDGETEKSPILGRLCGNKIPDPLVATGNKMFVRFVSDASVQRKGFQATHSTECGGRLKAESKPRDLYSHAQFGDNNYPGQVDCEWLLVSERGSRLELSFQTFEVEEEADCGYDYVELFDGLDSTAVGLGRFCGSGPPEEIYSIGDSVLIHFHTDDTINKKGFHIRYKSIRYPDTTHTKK
Protocol: (§2) The processing of laminin 5 by various BMP-1 related proteins was examined. […] The cells were then removed from the culture dish by 20 mM ammonium sulfate, the dish was washed, and the matrix was incubated in increasing amounts of each BMP-1 related protein. After proteolytic digestion, the matrix was extracted and examined by western blot analysis. […] BMP-1 and mTLL-2 cleaved the γ2 chain of laminin 5.

[3] = test system: SCC-15; assay: MTT toxicity assay, SCC-15; format: cell-based; conditions: 24 hour
[4] = test system: KLASV cells
Protocol: To allow for attachment to the tissue culture dish, KLASV cells were plated in tissue culture wells previously coated with type I collagen.

[5] = test system: normal human keratinocytes; assay: Scratch assay, normal human keratinocytes; format: cell-based; conditions: 10 μM; 24 hours
Protocol: (§3) To approximate in vivo epidermal cell migration, during which epidermal cells move as sheets, scratch assays were utilized. Normal human keratinocytes were plated to confluence in the presence of either of the inhibitors (10 μM) or DMSO, and the cells allowed to attach for 6 hours. A 2 mm scratch was produced in the culture, marked, and the migration of the cells studied for the following 24 to 48 hours. […] (FIG. 7B.) When scratched plates were subsequently washed after 24 hours of incubation with the inhibitors, and incubated for an additional 24 hours in the absence of inhibitors, normal migration equivalent to that of the control conditions was noted.

[6] = test system: normal keratinocytes; assay: Keratinocyte detachment by trypsin; format: cell-based; conditions: cultured 24 hours with compound; 0.05% trypsin
Description: The mode of attachment of keratinocytes to processed and unprocessed laminin 5 was examined by two methods. […] (FIG. 20.)

[7] = test system: squamous cell carcinoma cell line SCC-15; assay: Scratch assay, SCC-15; format: cell-based; conditions: 1, 5, 10 μM; 48 hours
[8] = test system: laminin 5 processing in squamous cell carcinoma cell line SCC-25; assay: Laminin 5 processing in SCC-25 cells, western blot; format: cell-based, human; conditions: 1, 5, 10 μM; 48 hours
Protocol: (§4) This is shown by western blot analysis. […] (FIG. 13: lane 1, control; lane 2, 1 μM; lane 3, 5 μM; lane 4, 10 μM.)

[9] = test system: keratinocytes; assay: Keratinocyte migration, Boyden chambers; format: cell-based
Protocol: Compounds 1 and 2 were used to examine the functional effects of processing by BMP-1 related proteins on keratinocyte migration. […] Keratinocytes were analyzed for migration in Boyden chambers in the presence of increasing amounts of the inhibitors. […] (Koivunen et al. (1999) Nature Biotechnology 17:768-774.)

[10] = test system: cultured cells; assay: Toxicity to cultured cells; format: cell-based
[11] = test system: laminin 5 processing in normal human keratinocytes; assay: Laminin 5 processing in keratinocyte cultures, western blot; format: cell-based
Protocol: Each of the inhibitors was added to freshly plated cultures of normal human keratinocytes. After 16 hours, laminin 5 was extracted from cultures and analyzed by western blot using a polyclonal antibody to laminin 5.

[12] = target: T1, MMP-2 (Homo sapiens, UniProt P08253); assay: Inhibition of MMP-2 activity; format: biochemical
T1 sequence (P08253 110-660): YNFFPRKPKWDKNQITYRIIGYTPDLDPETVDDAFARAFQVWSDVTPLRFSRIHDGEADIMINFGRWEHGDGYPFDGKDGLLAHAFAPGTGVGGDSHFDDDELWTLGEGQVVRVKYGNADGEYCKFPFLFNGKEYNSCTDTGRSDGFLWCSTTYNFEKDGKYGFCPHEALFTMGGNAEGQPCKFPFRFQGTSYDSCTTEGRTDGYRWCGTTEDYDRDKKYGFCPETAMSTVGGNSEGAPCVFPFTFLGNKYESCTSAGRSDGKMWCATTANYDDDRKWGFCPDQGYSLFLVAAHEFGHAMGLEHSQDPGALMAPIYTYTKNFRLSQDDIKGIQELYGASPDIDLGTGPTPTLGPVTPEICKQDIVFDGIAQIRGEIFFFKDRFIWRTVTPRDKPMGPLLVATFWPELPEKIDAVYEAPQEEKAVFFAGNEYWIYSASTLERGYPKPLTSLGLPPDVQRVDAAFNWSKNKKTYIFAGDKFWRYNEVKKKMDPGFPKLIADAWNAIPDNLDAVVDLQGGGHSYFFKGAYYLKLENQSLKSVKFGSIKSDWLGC

[13] = target: MT1-MMP (Homo sapiens, UniProt P50281); assay: Inhibition of MT1-MMP activity; format: biochemical
[14] = test system: normal immortalized keratinocytes (NIK); assay: Scratch assay, normal immortalized keratinocytes; format: cell-based
Protocol: (§5) A dose-dependent study of Compound 2 was performed on keratinocyte cultures. In these assays, a scratch was placed in a confluent layer of cells, and the migration of the cells into the scratched area was assessed after 48 hours. In the absence of inhibitor, normal immortalized keratinocytes (NIK) migrated into the scratch area.

[15] = test system: SiHa cells; assay: Matrigel invasion chamber, SiHa; format: cell-based; conditions: 24 hours; cell line unable to produce laminin 5
Protocol: as §1

[16] = target: MMP-9 (Homo sapiens, UniProt P14780); assay: Inhibition of MMP-9 activity; format: biochemical
MMP-9, sequence (P14780 94-707, species assumed): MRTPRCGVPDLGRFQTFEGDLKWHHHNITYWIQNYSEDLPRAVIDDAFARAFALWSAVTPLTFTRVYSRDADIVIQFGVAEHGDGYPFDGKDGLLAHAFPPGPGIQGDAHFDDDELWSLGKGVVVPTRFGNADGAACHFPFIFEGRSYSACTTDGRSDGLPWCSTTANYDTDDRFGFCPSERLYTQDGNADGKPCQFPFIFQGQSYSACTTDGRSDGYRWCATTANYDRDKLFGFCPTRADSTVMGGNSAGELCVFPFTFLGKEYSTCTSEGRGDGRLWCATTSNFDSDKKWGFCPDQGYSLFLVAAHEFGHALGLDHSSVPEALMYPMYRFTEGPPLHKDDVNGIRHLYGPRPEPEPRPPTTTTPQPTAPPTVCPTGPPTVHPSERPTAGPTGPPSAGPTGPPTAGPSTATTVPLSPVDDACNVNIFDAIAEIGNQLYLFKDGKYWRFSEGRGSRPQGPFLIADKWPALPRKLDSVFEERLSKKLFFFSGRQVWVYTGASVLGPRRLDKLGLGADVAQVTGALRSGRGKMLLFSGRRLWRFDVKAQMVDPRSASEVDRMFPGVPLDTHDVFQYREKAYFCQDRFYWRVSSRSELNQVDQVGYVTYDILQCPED

[17] = target: T2, MMP-1 (Homo sapiens, UniProt P03956); assay: Inhibition of MMP-1 activity; format: biochemical
T2 sequence (P03956 100-469): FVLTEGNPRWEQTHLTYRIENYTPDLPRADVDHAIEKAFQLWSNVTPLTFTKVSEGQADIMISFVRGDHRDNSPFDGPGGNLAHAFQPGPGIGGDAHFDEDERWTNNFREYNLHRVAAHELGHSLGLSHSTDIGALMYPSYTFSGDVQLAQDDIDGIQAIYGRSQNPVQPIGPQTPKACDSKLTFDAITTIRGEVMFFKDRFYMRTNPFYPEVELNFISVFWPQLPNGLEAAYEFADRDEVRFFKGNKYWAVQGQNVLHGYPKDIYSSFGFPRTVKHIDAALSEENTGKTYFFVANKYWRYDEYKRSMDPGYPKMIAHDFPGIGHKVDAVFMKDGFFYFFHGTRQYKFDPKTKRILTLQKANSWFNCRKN

[18] = test system: SiHa; assay: MTT toxicity assay, SiHa; format: cell-based; conditions: 24 hour
[19] = test system: laminin 5 processing in normal immortalized keratinocytes (NIK); assay: Laminin 5 processing in normal immortalized keratinocytes, western blot; format: cell-based; conditions: 1, 5, 8 μM; 48 hours
[20] = test system: laminin 5 processing in squamous cell carcinoma cell line SCC-15; assay: Laminin 5 processing in SCC-15 cells, western blot; format: cell-based; conditions: 1, 5, 10 μM; 48 hours
Protocol: as §4

[21] = test system: SCC-15 cells; assay: Matrigel invasion chamber, SCC-15; format: cell-based; conditions: 5 μM; 24 hours
Protocol: as §1

[22] = test system: squamous carcinoma cells; assay: Migration of squamous carcinoma cells (general statement); format: cell-based
[23] = test system: SCC-25; assay: MTT toxicity assay, SCC-25; format: cell-based, human; conditions: 24 hour
[24] = target: mTll-2 (Homo sapiens, UniProt Q9Y6L7); assay: Cleavage of unprocessed laminin 5 matrix by mTll-2, western blot; format: biochemical; conditions: 10 μM
mTll-2, sequence (Q9Y6L7 150-1015): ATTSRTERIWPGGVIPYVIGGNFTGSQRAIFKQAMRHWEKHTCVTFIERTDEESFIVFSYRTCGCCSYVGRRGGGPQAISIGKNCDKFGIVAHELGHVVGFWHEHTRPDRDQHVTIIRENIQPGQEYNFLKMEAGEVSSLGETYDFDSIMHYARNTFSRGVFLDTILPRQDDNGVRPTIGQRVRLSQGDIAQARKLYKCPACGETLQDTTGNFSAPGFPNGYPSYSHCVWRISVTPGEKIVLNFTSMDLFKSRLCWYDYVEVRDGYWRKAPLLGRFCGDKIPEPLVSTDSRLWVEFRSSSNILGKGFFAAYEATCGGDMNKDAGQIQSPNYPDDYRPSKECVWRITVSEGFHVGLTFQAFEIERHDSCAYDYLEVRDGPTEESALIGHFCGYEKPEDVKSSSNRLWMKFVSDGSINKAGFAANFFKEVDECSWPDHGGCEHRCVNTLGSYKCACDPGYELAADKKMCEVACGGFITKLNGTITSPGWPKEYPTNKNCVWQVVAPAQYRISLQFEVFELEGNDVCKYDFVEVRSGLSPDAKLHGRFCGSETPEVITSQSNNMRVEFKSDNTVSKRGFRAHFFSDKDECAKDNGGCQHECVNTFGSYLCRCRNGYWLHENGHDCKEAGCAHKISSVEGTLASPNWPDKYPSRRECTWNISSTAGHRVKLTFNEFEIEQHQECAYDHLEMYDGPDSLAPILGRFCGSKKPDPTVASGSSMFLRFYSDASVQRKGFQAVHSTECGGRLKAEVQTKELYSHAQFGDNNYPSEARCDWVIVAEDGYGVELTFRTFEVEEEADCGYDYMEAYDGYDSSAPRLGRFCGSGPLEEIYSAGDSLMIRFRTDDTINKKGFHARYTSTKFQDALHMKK
Protocol: as §2

[25] = test system: squamous carcinoma cell line SCC-25; assay: Scratch assay, SCC-25; format: cell-based, human
Protocol: as §3
In addition, squamous carcinoma cell line SCC-25 (ATCC Number CRL-1628) was examined by the described scratch assay using the inhibitors. […] Washing out of the inhibitors for an additional 48 hour time period restored normal SCC migration.
as §5

## COc1ccc(CCN(CCC(=O)NO)S(=O)(=O)c2ccc(NC(=O)NCc3ccccc3)cc2)cc1 [Compound 2]
[1]
  invasion of SCC-25 cells: able to inhibit the invasion
[2]
  cleavage of laminin 5 α3 chain by mTLL-1: inhibited cleavage of laminin 5 α3 chain
[3]
  MTT toxicity, SCC-15: little or no toxicity
[4]; type I collagen coated dishes, 10 μM, 48 hr
  migration of KLASV cells: not inhibited
[4]; type I collagen coated wells, 24 hours, compared to non-treated control
  migration of KLASV cells into the scratch: significant migration into the scratch
[5]
  migration of keratinocytes into the scratch: almost a complete lack of migration
[6]
  resistance of treated cells to trypsin detachment: more resistant to trypsin treatment
[7]
  migration of SCC-15 into the scratch area, dose dependence: dose-dependent effect
[8]
  processing of laminin 5 in SCC-25, dose dependence: dose-dependent effect
[9]
  inhibition of keratinocyte migration: potently inhibit
[9]; 10 μM
  keratinocyte migration in transwells or over a scratch: almost complete lack of migration
[9]; Boyden chamber and scratch assays
  inhibition of keratinocyte migration, dose dependence: inhibition of KC migration in a dose-dependent manner
[9]; Boyden chambers
  dose required to achieve nearly complete inhibition of migration: 10 µM
[10]; 100 times the concentration which inhibited BMP-1 activity
  toxicity to cultured cells at 100 times inhibitory levels: nontoxic
[10]; cell culture
  toxic effect on cells: nontoxic; also recorded: non-toxic; also recorded: no toxic effect on cells
[11]; 10 μM
  processing of laminin 5 deposited by cultured keratinocytes: prevented processing of laminin 5
[11]; 16 hours, western blot
  level of expression of laminin 5: did not significantly change
  processing of the α3 and γ2 chains of laminin 5: completely inhibited
[11]; dose-dependent manner
  laminin 5 α3 chain and γ2 chain processing, dose dependence: inhibited laminin 5 α3 chain and γ2 chain processing
[12]
  inhibition of activity of MMP-2: no inhibition
[13]
  inhibition of activity of MT1-MMP: no inhibition
[14]; 10 μM, 48 hr
  inhibition of keratinocyte migration on type I collagen coated versus non-coated dishes: equally effective at inhibiting cell migration
[14]; 1, 5, 8 μM, 48 hours
  migration of NIK into the scratch area, dose dependence: dose-dependent inhibition of migration
[15]
  invasion of SiHa cells: not able to inhibit the invasion
[16]
  inhibition of activity of MMP-9: no inhibition
[17]
  inhibition of activity of MMP-1: no inhibition
[18]
  MTT toxicity, SiHa: little or no toxicity
[19]
  processing of laminin 5 in NIK, dose dependence: dose-dependent effect
[20]
  processing of laminin 5 in SCC-15, dose dependence: dose-dependent effect
[21]
  invasion of SCC-15 cells: able to inhibit the invasion
[22]
  inhibition of migration of squamous carcinoma cells: potently inhibit
[23]
  MTT toxicity, SCC-25: little or no toxicity
[24]
  cleavage of laminin 5 α3 chain by mTLL-2: inhibited cleavage of laminin 5 α3 chain
  cleavage of laminin 5 γ2 chain by mTLL-2: inhibited cleavage of laminin 5 γ2 chain
[25]; 10 μM
  SCC-25 migration response compared with keratinocytes: identical response
[25]; 10 μM, 48 hr
  inhibition of SCC cell migration on type I collagen coated versus non-coated dishes: equally effective at inhibiting cell migration
[25]; 10 μM, up to 48 hours
  SCC-25 migration into the scratch: effective at preventing SCC-25 migration
[25]; 1, 5, 10 μM, 48 hours
  migration of SCC-25 into the scratch area, dose dependence: dose-dependent effect
